# Key:
# Format in all cases: in vivo
# [1] = tested on: Zea mays (ZEAMX); assay: Post-emergence effects on crop plants, section F (Table F1); details: Zea mays, 504 h, application rate 320 g/ha, read-out: post-emergence activity against ZEAMX in %
# Source text: (§1) Seeds of mono- and dicotyledonous weed plants and crop plants were sown, in plastic or organic planting pots, in sandy loam, covered with soil and grown in a greenhouse under controlled growth conditions. 2 to 3 weeks after sowing, the test plants were sprayed in the single-leaf stage. The compounds according to the invention, formulated in form of wettable powders (WP) or as emulsifiable concentrates (EC), were sprayed onto the green plant parts as aqueous suspension or emulsion, with the addition of 0.5% of an additive, at an application rate of 600 l of water/ha (converted). The test plants were placed in the greenhouse for ca. 3 weeks under optimum growth conditions, and then the effect of the preparations was assessed visually in comparison with untreated controls (herbicidal effect in percent (%): 100% effect=plants have died off, 0% effect=as control plants). Tables F1 to F4 below show the effects of selected compounds of the general formula (I) according to Table 1 on various crop plants and an application rate corresponding to 320 g/ha or below obtained by the experimental procedure mentioned above.
# [2] = tested on: Brassica napus (BRSNW); assay: Pre-emergence effects on crop plants, section D (Table D5); details: application rate 80 g/ha; visual grading after ca. 3 weeks
# Source text: (§2) Seeds of mono- and dicotyledonous weed plants and crop plants were sown, in plastic or organic planting pots, in sandy loam and covered with soil. The compounds according to the invention, formulated in the form of wettable powders (WP) or as emulsifiable concentrates (EC), were applied to the surface of the covering soil as aqueous suspension or emulsion, with the addition of 0.5% of an additive, at an application rate of 600 l of water/ha (converted).
# (§3) Following treatment, the pots were placed in a greenhouse and kept under optimum growth conditions for the test plants. The visual grading of the damage to the test plants was carried out after ca. 3 weeks in comparison to untreated controls (herbicidal effect in percent (%): 100% effect=plants have died off, 0% effect=as control plants).
# (§4) Tables D1 to D5 below show the effects of various compounds of the general formula (I) according to Table 1 on various crop plants and an application rate corresponding to 320 g/ha or below obtained by the experimental procedure mentioned above in Biological Examples, Section C.
# [3] = tested on: Glycine max (GLXMA); assay: Pre-emergence effects on crop plants, section D (Table D4); details: application rate 80 g/ha; visual grading after ca. 3 weeks
# Source text: as §2, §3, §4
# [4] = tested on: Zea mays (ZEAMX); assay: Pre-emergence effects on crop plants, section D (Table D1); details: application rate 320 g/ha; visual grading after ca. 3 weeks
# Source text: as §2, §3, §4
# [5] = tested on: Brassica napus (BRSNW); assay: Post-emergence effects on crop plants, section F (Table F5); details: Brassica napus, 504 h, application rate 320 g/ha, read-out: post-emergence activity against BRSNW in %
# Source text: as §1
# [6] = tested on: Glycine max (GLXMA); assay: Post-emergence effects on crop plants, section F (Table F4); details: Glycine max, 504 h, application rate 320 g/ha, read-out: post-emergence activity against GLXMA in %
# Source text: as §1
# [7] = tested on: Triticum aestivum (TRZAS); assay: Post-emergence effects on crop plants, section F (Table F2); details: Triticum aestivum, 504 h, application rate 320 g/ha, read-out: post-emergence activity against TRZAS in %
# Source text: as §1
# [8] = tested on: Triticum aestivum (TRZAS); assay: Pre-emergence effects on crop plants, section D (Table D2); details: application rate 320 g/ha; visual grading after ca. 3 weeks
# Source text: as §2, §3, §4
# [9] = tested on: Digitaria sanguinalis (DIGSA); assay: Herbicidal pre-emergence action, section A (Table A12); details: application rate 320 g/ha
# In short: (§5)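 Pre-emergence soil-surface application: WP or EC formulations in water plus 0.5% additive, sprayed at 600 l/ha onto soil covering seeds sown in sandy loam. Visual percent damage rated at about 3 weeks against untreated pots, 100% meaning plants died off and 0% meaning like controls.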
# [10] = tested on: Stellaria media (STEME); assay: Herbicidal post-emergence action, section B (Table B9); details: application rate 320 g/ha; visual rating about 3 weeks after treatment vs untreated controls
# In short: (§6)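 Post-emergence greenhouse test: weeds sown in sandy loam, treated at one-leaf stage 2–3 weeks after sowing with WP or EC formulations sprayed as aqueous suspension/emulsion plus 0.5% additive at 600 L/ha. Activity rated visually versus untreated controls after about 3 weeks (100% = plants dead, 0% = like control).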
# [11] = tested on: Lolium rigidum (LOLRI); assay: Herbicidal post-emergence action, section B (Table B5); details: application rate 1280 g/ha; visual rating about 3 weeks after treatment vs untreated controls
# Procedure: (§7) Seeds of mono- and dicotyledonous weed plants were placed in plastic pots in sandy loam soil (doubly sown with in each case one species of mono- or dicotyledonous weed plants per pot), covered with soil and cultivated in a greenhouse under controlled growth conditions. 2 to 3 weeks after sowing, the test plants were treated at the one-leaf stage. The compounds of the invention, formulated in the form of wettable powders (WP) or as emulsion concentrates (EC), were applied onto the green parts of the plants as aqueous suspension or emulsion with addition of 0.5% additive at a water application rate of 600 liters per hectare (converted). After the test plants had been kept in the greenhouse under optimum growth conditions for about 3 weeks, the activity of the preparations was rated visually in comparison to untreated controls. For example, 100% activity=the plants have died, 0% activity=like control plants.
# [12] = tested on: Alopecurus myosuroides (ALOMY); assay: Herbicidal pre-emergence action, section A (Table A2); details: application rate 1280 g/ha; visual grading after ca. 3 weeks vs untreated controls
# In short: as §5
# [13] = tested on: Veronica persica (VERPE); assay: Herbicidal pre-emergence action, section A (Table A10); details: application rate 1280 g/ha
# In short: as §5
# [14] = tested on: Amaranthus retroflexus (AMARE); assay: Herbicidal post-emergence action, section B (Table B11); details: application rate 1280 g/ha; visual rating about 3 weeks after treatment vs untreated controls
# In short: as §6
# [15] = tested on: Amaranthus retroflexus (AMARE); assay: Herbicidal pre-emergence action, section A (Table A11); details: application rate 320 g/ha
# In short: as §5
# [16] = tested on: Abutilon theophrasti (ABUTH); assay: Herbicidal post-emergence action, section B (Table B1); details: application rate 320 g/ha, rated visually after about 3 weeks
# In short: as §6
# [17] = tested on: Echinochloa crus-galli (ECHCG); assay: Herbicidal pre-emergence action, section A (Table A3); details: visual grading after ca. 3 weeks vs untreated controls
# In short: as §5
# [18] = tested on: Poa annua (POAAN); assay: Herbicidal post-emergence action, section B (Table B7); details: visual rating about 3 weeks after treatment vs untreated controls
# In short: as §6
# [19] = tested on: Matricaria inodora (MATIN); assay: Herbicidal pre-emergence action, section A (Table A6); details: visual grading after ca. 3 weeks vs untreated controls
# In short: as §5
# [20] = tested on: Stellaria media (STEME); assay: Herbicidal pre-emergence action, section A (Table A9); details: application rate 320 g/ha
# In short: as §5
# [21] = tested on: Abutilon theophrasti (ABUTH); assay: Herbicidal pre-emergence action, section A (Table A1); details: visual grading after ca. 3 weeks vs untreated controls
# Source text: Seeds of mono- and dicotyledonous weed plants were sown in plastic pots (double sowings with one species of mono- and one species of dicotyledonous weed plants per pot), in sandy loam, and covered with soil. The compounds according to the invention, formulated in the form of wettable powders (WP) or as emulsifiable concentrates (EC), were applied to the surface of the covering soil as aqueous suspension or emulsion, with the addition of 0.5% of an additive, at an application rate of 600 l of water per hectare (converted). Following treatment, the pots were placed in a greenhouse and kept under optimum growth conditions for the test plants. The visual grading of the damage to the test plants was carried out after ca. 3 weeks in comparison to untreated controls (herbicidal effect in percent (%): 100% effect=plants have died off, 0% effect=as control plants).
# [22] = tested on: Lolium rigidum (LOLRI); assay: Herbicidal pre-emergence action, section A (Table A5); details: visual grading after ca. 3 weeks vs untreated controls
# In short: as §5
# [23] = tested on: Poa annua (POAAN); assay: Herbicidal pre-emergence action, section A (Table A7); details: application rate 320 g/ha; visual grading after ca. 3 weeks vs untreated controls
# In short: as §5
# [24] = tested on: Kochia scoparia (KCHSC); assay: Herbicidal pre-emergence action, section A (Table A4); details: visual grading after ca. 3 weeks vs untreated controls
# In short: as §5
# [25] = tested on: Setaria viridis (SETVI); assay: Herbicidal pre-emergence action, section A (Table A8); details: application rate 1280 g/ha
# In short: as §5
# [26] = tested on: Setaria viridis (SETVI); assay: Herbicidal post-emergence action, section B (Table B8); details: application rate 1280 g/ha; visual rating about 3 weeks after treatment vs untreated controls
# In short: as §6
# [27] = tested on: Kochia scoparia (KCHSC); assay: Herbicidal post-emergence action, section B (Table B4); details: application rate 1280 g/ha; visual rating about 3 weeks after treatment vs untreated controls
# In short: as §6
# [28] = tested on: Matricaria inodora (MATIN); assay: Herbicidal post-emergence action, section B (Table B6); details: application rate 1280 g/ha; visual rating about 3 weeks after treatment vs untreated controls
# Procedure: as §7
# [29] = tested on: Echinochloa crus-galli (ECHCG); assay: Herbicidal post-emergence action, section B (Table B3); details: application rate 1280 g/ha, rated visually after about 3 weeks
# In short: as §6
smiles,measurement,setting,value
"CCS(=O)(=O)N1CS(=O)(=O)c2cc(C)c(-c3ccccc3F)nc21 [Example I-146, 3-(ethylsulfonyl)-5-(2-fluorophenyl)-6-methyl-2,3-dihydro[1,3]thiazolo[4,5-b]pyridine 1,1-dioxide]","percent crop plant damage (phytotoxicity) on Zea mays, post-emergence at 320 g/ha",[1],0%
same,pre-emergence activity against BRSNW in % (crop plant damage),[2],0%
same,pre-emergence activity against GLXMA in % (crop plant damage),[3],0%
same,pre-emergence activity against ZEAMX in % (crop plant damage),[4],0%
same,crop plant damage (phytotoxicity) in % at 320 g/ha,[5],0%
same,percent crop plant damage at 320 g/ha,[6],0%
same,"percent crop plant damage (wheat, post-emergence) at 320 g/ha",[7],0%
same,pre-emergence activity against TRZAS in % (crop plant damage),[8],0%
Cc1cc2c(nc1-c1cccc(F)c1F)N(C(=O)C1(C)CC(Cl)=NO1)CS2 (stereo not shown) [Example I-152],pre-emergence activity against DIGSA in %,[9],90%
same,post-emergence activity against STEME in %,[10],90%
same,post-emergence activity against LOLRI in %,[11],90%
same,pre-emergence activity against ALOMY in %,[12],90%
same,pre-emergence activity against VERPE in %,[13],90%
same,post-emergence activity against AMARE in %,[14],100%
same,pre-emergence activity against AMARE in %,[15],100%
same,post-emergence activity against ABUTH in %,[16],90%
same,pre-emergence activity against ECHCG in %,[17]; application rate 1280 g/ha,90%
same,post-emergence activity against POAAN in %,[18]; application rate 1280 g/ha,90%
same,pre-emergence activity against MATIN in %,[19]; application rate 1280 g/ha,90%
same,pre-emergence activity against STEME in %,[20],90%
same,pre-emergence activity against ABUTH in %,[21]; application rate 320 g/ha,90%
same,pre-emergence activity against LOLRI in %,[22]; application rate 1280 g/ha,100%
same,pre-emergence activity against POAAN in %,[23],100%
same,pre-emergence activity against KCHSC in %,[24]; application rate 1280 g/ha,100%
same,pre-emergence activity against SETVI in %,[25],100%
same,post-emergence activity against SETVI in %,[26],90%
same,post-emergence activity against KCHSC in %,[27],90%
COC(=O)CS(=O)(=O)N1CSc2cc(C)c(-c3ccccc3F)nc21 [Example I-121],pre-emergence activity against DIGSA in %,[9],100%
same,pre-emergence activity against ALOMY in %,[12],90%
same,pre-emergence activity against VERPE in %,[13],90%
same,pre-emergence activity against AMARE in %,[15],90%
same,post-emergence activity against MATIN in %,[28],90%
same,pre-emergence activity against ECHCG in %,[17]; application rate 320 g/ha,100%
same,post-emergence activity against POAAN in %,[18]; application rate 320 g/ha,90%
same,pre-emergence activity against MATIN in %,[19]; application rate 320 g/ha,90%
same,pre-emergence activity against STEME in %,[20],90%
same,pre-emergence activity against ABUTH in %,[21]; application rate 1280 g/ha,90%
same,pre-emergence activity against LOLRI in %,[22]; application rate 320 g/ha,100%
same,pre-emergence activity against POAAN in %,[23],100%
same,pre-emergence activity against KCHSC in %,[24]; application rate 320 g/ha,90%
same,post-emergence activity against ECHCG in %,[29],90%
same,pre-emergence activity against SETVI in %,[25],100%
same,post-emergence activity against SETVI in %,[26],90%

# Source: patent US20240381872A1, “SUBSTITUTED 2,3-DIHYDRO[1,3]THIAZOLO[4,5-B]PYRIDINES, SALTS THEREOF AND THEIR USE AS HERBICIDALLY ACTIVE SUBSTANCES” (BAYER AKTIENGESELLSCHAFT, priority 2021, published 2024)
